Assay results: PMC10974505, “Evaluation of the Antifungal and Antiproliferative Properties of the Lichen Roccella tinctoria DC. Extracts and Main Components” (Pharmaceutics, 2024)
Converted amounts (≈) assume the structure as drawn.

How the values were obtained:
[1] = system: different fungal strains including C. albicans; design: method as in PMID 30732479; conditions: cited from earlier work
C. albicans biofilm [2] = experiment: Anti-Candida biofilm formation, 24 h (CV assay); assay type: cell-based, Candida albicans; conditions: concentration not given
Description: Presterilized, polystyrene, flat-bottom 48-well microtiter plates were used to investigate anti-Candida adhesion property of the extracts and the compounds [47, 48]. […] After that time, the cell suspensions were aspirated, and each well was washed twice with PBS to remove loosely adherent cells. Thus, CV assay was used to quantitatively study Candida adhesion (90 min) and early biofilm formation (24 h). The biomass was measured at 590 nm using a microplate reader.
(§1) Candida adhesion is followed by the colonization and formation of the biofilm, which is a community of cells with the ability to secrete the extracellular matrix (ECM). Biofilm-characterized infections are the most difficult to treat, and preventing biofilm formation could be of major importance. An anti-Candida biofilm formation assay was conducted after 24 h and 48 h of biofilm incubation, and the total biomass was evaluated using the CV assay.

[3] = system: MCF-7 (breast cancer cell line); design: method as in doi:10.32508/stdjns.v2i5.779; conditions: MCF-7, 100 µg/mL; isolated from Roccella sinensis; cited from earlier work
C. albicans ATCC 10231 = experiment: Galleria mellonella survival assay (larvae infected with C. albicans); assay type: in vivo
Description: The survival assay was carried out as described by Cairone and colleagues. G. mellonella larvae weighed 0.3 ± 0.03 g and were obtained from Todaro Sport (Rome, Italy). […] Three control groups were used, one with no treatment applied, one pierced and inoculated with sterile saline solution, and one treated with C. albicans suspension. The larvae were subsequently placed in an incubator set at 37 °C and observed for 120 h. […] Each trial was replicated three times, and the outcomes were documented as the survival percentage.
G. mellonella larvae as an in vivo model were chosen due to the similarities between their immunity system and the mammalian one. Furthermore, G. mellonella larvae provide a well-established in vivo model known for its ease of handling and utilization. They are extensively employed to assess the antimicrobial efficacy of both chemical and natural compounds, aligning with the ethical guidelines of the 3Rs (Replacement, Reduction, and Refinement) in animal research.

[4] = system: HepG2 (liver hepatocellular carcinoma cell line); design: method as in doi:10.32508/stdjns.v2i5.779; conditions: HepG2, 100 µg/mL; isolated from Roccella sinensis; cited from earlier work
[5] = system: HeLa (cervical cancer cell line); design: method as in doi:10.32508/stdjns.v2i5.779; conditions: 100 µg/mL, isolated from Roccella sinensis; cited from earlier work
BEAS-2B bronchial cells = experiment: MTT tolerability assay, noncancerous BEAS-2B bronchial cells; assay type: cell-based, human; conditions: for inhibition of BEAS-2B cell viability: 50 µg/mL; for IC50: Homo sapiens, BEAS-2B, read-out: IC50 [µg/mL] (CL) BEAS-2B
Description: (§2) A549 cells were kindly provided by Prof. Lucia Nencioni (Dept. of Public Health and Infectious Diseases, Sapienza University of Rome, Rome, Italy), while Mz-ChA-1 and H69 cells were donated by Prof. Romina […]. of Anatomical, Histological, Forensic and Orthopedic Sciences, Sapienza University of Rome, Rome, Italy) and Prof. […] (Indiana University School of Medicine, Indianapolis, IN, USA). BEAS-2B cells were provided by Sigma-Aldrich (St. Louis, MO, USA). […] The growth media were replaced twice per week; subcultures were prepared when the cells achieved approximately 80% confluency. […] In brief, 2 × 10^4 cells/well were cultured into 96-well microplates for 24 h. Then, they were subjected to a treatment with progressive concentrations of the tested extracts for further 24 h. […] The effect of the treatments on the cell viability was expressed as percentage of the vehicle control. […] In addition, tolerability studies in human epithelial BEAS-2B bronchial cells and H69 cholangiocytes were performed in order to establish the possible selective cytotoxicity of the tested samples to cancer cells.

[6] = system: C. albicans planktonic cells; experiment: Antifungal susceptibility test (broth microdilution), planktonic cells; assay type: cell-based, Candida albicans ATCC 10231; conditions: for MIC50 / MIC90 / MIC: Candida albicans; for MIC50: read-out: GM MIC50; for MIC90: minimum inhibitory concentration of 90% fungal growth, read-out: GM MIC90; for MIC: minimum inhibitory concentration of 100% fungal growth, read-out: GM MIC100
Description: Candida albicans ATCC 10231 was obtained from the American Type Culture Collection (ATCC, Rockville, MD, USA). The antifungal effects of the isolated compounds and of the extracts against C. albicans ATCC 10231 were measured using the broth microdilution method following the standardized methods for yeast. C. albicans was cultured on Sabouraud dextrose agar (Sigma Aldrich, St. Louis, MO, USA) at 35 °C for 24 h. The final concentration of the inoculum was 2500 cells/mL. The extracts and the compounds were firstly dissolved in DMSO and then diluted at least 100-times with RPMI-1640 medium buffered with MOPS (4-morpholinepropanesulfonic acid). […] The minimal inhibitory concentration (MIC) was calculated by comparison of the growth in each well with that of the drug-free control after 24 h. Each experiment was conducted in triplicate and replicated at least three times on different dates.
The antifungal activity of extracts and isolated compounds against C. albicans planktonic cells was examined following the standardized broth microdilution method for yeasts (CLSI M27-A3).

[7] = system: NCI-H460 (human lung cancer cell line); design: method as in doi:10.32508/stdjns.v2i5.779; conditions: NCI-H460, 100 µg/mL; isolated from Roccella sinensis; cited from earlier work
[8] = system: Mz-ChA-1 cholangiocarcinoma cells; experiment: MTT cytotoxicity assay, Mz-ChA-1 cholangiocarcinoma cells; assay type: cell-based, human; conditions: for cytotoxicity at the highest concentration tested: Mz-ChA-1 cells, 500 µg/mL
Description: as §2

[9] = MTT tolerability assay, noncancerous H69 cholangiocytes; assay type: cell-based, human; conditions: human, SV40-immortalized H69 cholangiocytes (noncancerous); 50 µg/mL; read-out: lowering of H69 cell viability
Description: as §2

H69 cholangiocytes = experiment: as above; assay type: cell-based, human; conditions: MTT, 24 h treatment, confidence limits in brackets, ne 1 = not evaluable, highest inhibitory effect lower than 80%, ne 2 = not evaluable, lower inhibitory effect higher than 40%; for IC50: Homo sapiens, read-out: IC50 [µg/mL] (CL) H69
Description: as §2

A549 lung cancer cells = experiment: MTT cytotoxicity assay, A549 lung cancer cells; assay type: cell-based, human; conditions: for cytotoxicity at the highest concentration tested: A549 cells, 500 µg/mL
Description: as §2

Fusarium oxysporum = system: Fusarium oxysporum; design: method as in doi:10.4038/jnsfsr.v40i1.4167; conditions: 100 µg/mL; cited from earlier work
Alternaria solani = system: Alternaria solani; design: method as in doi:10.4038/jnsfsr.v40i1.4167; conditions: 100 µg/mL; cited from earlier work
C. albicans biofilm [10] = experiment: Anti-Candida biofilm formation, 48 h (CV assay); assay type: cell-based; conditions: 512 μg/mL
Description: Candida biofilm was established on flat-bottomed, 48-well microtiter plates, following previous protocols with minor modifications. […] Plates were then incubated for 48 h at 37 °C. After biofilm formation, the medium was aspirated, and non-adherent cells were removed by washing twice with phosphate-buffered saline (PBS). C. albicans biomass was quantified using CV assay.
as §1

[11] = system: HCT-116 colon cancer cells; design: method as in PMID 35190352; conditions: cited from earlier work
[12] = MTT, 24 h treatment, confidence limits in brackets, ne 1 = not evaluable, highest inhibitory effect lower than 80%, ne 2 = not evaluable, lower inhibitory effect higher than 40%
[13] = geometric mean, minimum inhibitory concentration of 50% fungal growth, 24 h

Structure (SMILES)	MIC50 [6, 13] [µg/mL]	MIC90 ([6]; geometric mean, 24 h) [µg/mL]	MIC ([6]; geometric mean, 24 h) [µg/mL]	inhibition of BEAS-2B cell viability (BEAS-2B bronchial cells)	IC50 [µg/mL] (CL) Mz-ChA-1 [8, 12]	cytotoxicity at the highest concentration tested [8]	cytotoxicity at 24 h, 50 µg/mL [9] [%]	IC50 (H69 cholangiocytes) [µg/mL]	cytotoxicity at the highest concentration tested (A549 lung cancer cells)	IC50 [µg/mL] (CL) A549 (A549 lung cancer cells; [12])	IC50 (BEAS-2B bronchial cells; [12]) [µg/mL]	other results
Cc1cc(OC(=O)c2c(C)cc(O)cc2O)cc(O)c1C(=O)OCC(O)C(O)CO (centres unmarked) [Compound 1, erythrin]	> 128	> 128	> 128	at least 40%	ne ^1	at least 60%	~40	138 (≈ 327 µM)	at least 60%	ne ^1		antifungal activity [1]: not shown any antifungal activity; percent rate of inhibition of biofilm formation (C. albicans biofilm [2]): lower than 40%; toxicity [3]: nontoxic; infected larvae mortality rate (C. albicans ATCC 10231; 256 μg/mL (10 μL), control group mortality 90%): 20%; toxicity [4]: nontoxic; toxicity [5]: nontoxic; IC50 [µg/mL] (CL) BEAS-2B (BEAS-2B bronchial cells; [12]): ne ^2; activity against the planktonic growth of C. albicans ([6]; at the highest concentration (512 μg/mL)): no activity; toxicity [7]: nontoxic
COC(=O)c1c(C)cc(O)cc1O [Compound 2, methyl orsellinate]	87 (≈ 478 µM)	> 128	> 128	at least 40%	ne ^1	lower than 50%	60		lower than 50%	ne ^1	103 (≈ 564 µM)	larvae survival rate (C. albicans ATCC 10231; 512 μg/mL (10 μL), after 5 days, infected control survival 10%): 50%; inhibition percentage (Fusarium oxysporum): 67.39%; GM MIC50 [6, 13]: 87 µg/mL; inhibition percentage (Alternaria solani): 58.41%; IC50 [µg/mL] (CL) H69 (H69 cholangiocytes): ne ^2; inhibition at 512 µg/mL (C. albicans biofilm [10]): 72%
Cc1cc(O)cc(O)c1C(=O)OCC(O)C(O)CO (centres unmarked) [Compound 3, montagnetol]												melting point: 158 to 160 °C
COc1cccc2c1C(=O)c1c(O)c3c(c(O)c1C2=O)C[C@@](O)(C(=O)CO)C[C@@H]3O[C@H]1C[C@H](N)[C@H](O)[C@H](C)O1 [Doxorubicin, doxorubicin, reference compound]								15.7 (≈ 28.9 µM)			4.1 (≈ 7.54 µM)	IC50 ([8]; Homo sapiens, MTT, 24 h treatment, confidence limits in brackets, ne 1 = not evaluable, highest inhibitory effect lower than 80%, ne 2 = not evaluable, lower inhibitory effect higher than 40%, read-out: IC50 [µg/mL] (CL) Mz-ChA-1): 24.5 µg/mL (≈ 45.1 µM); IC50 (A549 lung cancer cells; Homo sapiens, A549, MTT, 24 h treatment, confidence limits in brackets, ne 1 = not evaluable, highest inhibitory effect lower than 80%, ne 2 = not evaluable, lower inhibitory effect higher than 40%, read-out: IC50 [µg/mL] (CL) A549): 17.3 µg/mL (≈ 31.8 µM)
Cc1cc(OC(=O)c2c(C)cc(O)cc2O)cc(O)c1C(=O)O [lecanoric acid]												effect on HCT-116 cells [11]: affected the cell viability and colony formation, and it induced a cell cycle block
